Data set [1] concerns Akt or ERK. The data set can be described thus: Western blotting, Akt or ERK phosphorylation. As to conditions: Gamitrinib 5 μM. Type of data set: cell-based, human. As to the method:
(§1) Protein lysates were prepared in RIPA buffer containing 150 mM NaCl, 1.0% Triton X-100, 0.5% sodium deoxycholate, 0.1% SDS, 50 mM Tris, pH 8.0, in the presence of EDTA-free protease inhibitor cocktail (Roche) and phosphatase inhibitor cocktail 2 and 3 (Sigma Aldrich). Equal amounts of protein lysates were separated by SDS gel electrophoresis, transferred to PVDF membranes and incubated with primary antibodies of various specificities. Protein bands were detected by chemiluminescence, as described (21).
Background: In western blotting, separated proteins are transferred to a membrane and probed.

For data set [2], the system named is LN229 cells. Description: Galactose challenge cell viability. Type of data set: cell-based, human. To be noted: Gamitrinib 5 μM. As to the method:
Human glioblastoma LN229, prostate adenocarcinoma PC3 and PC3-ML subline, lung adenocarcinoma H1299, H1437, H460 and A549, breast adenocarcinoma MDA-MB-231, melanoma 1205Lu and WM793, or normal NIH3T3 and MRC-5 fibroblasts were obtained from the American Tissue Culture Collection (ATCC), and maintained in culture according to the supplier's specifications. For metabolic stress experiments, cells were incubated in MEM-based media containing glucose, essential and non-essential amino acids and vitamins in identical concentration as DMEM, plus 4 mM L-glutamine, 1 mM sodium pyruvate, 10 mM HEPES, and 10% 10 K dialyzed FBS (Gibco). Three conditions were tested: 25 mM glucose (complete medium), 5 mM glucose or 50% amino acid deprivation compared to DMEM. […]
Tumor cells were plated onto 96-well plates at 3.7×10^3/well and treated with vehicle or Gamitrinib (5 μM). After 24 h, cell viability was assessed with a 3 (4,5-dimethyl-thyazoyl-2-yl)2,5 diphenyltetrazolium bromide (MTT) colorimetric assay (24), or, alternatively, by Trypan blue exclusion and light microscopy. […] In some experiments, tumor cell proliferation was assessed by direct cell counting and light microscopy.

Data set [3] has as its system Focal Adhesion Kinase (FAK). The data set can be described thus: Western blotting, FAK phosphorylation. Format: cell-based, human. As to conditions: tumor cells (PC3); Gamitrinib 5 μM, CCCP 12.5 μM, rapamycin 0.1 μM. As to the method:
as §1

Data set [4] deals with bone metastatic disease. To be noted: orthotopic xenograft models and genetic mouse models; cited from earlier work.
In data set [5] the test system is PC3 cells. The data set can be described thus: Matrigel-coated transwell cell invasion. Type of data set: cell-based, human. As to conditions: Gamitrinib 5 μM, 17-AAG 5 μM, CCCP 12.5 μM, 2-DG 25 mM, 16 h. As to the method: Various tumor cell types were treated as indicated in each experiment, suspended in 0.1% BSA/DMEM and seeded (1.6−3.2×10^3 cells/mm2, depending on the cell type) in the upper compartment of […] pore diameter BD transwells (BD). NIH3T3 conditioned medium was placed in the lower compartment as a chemoattractant. After 6-18 h incubations at 37° C., the transwell membranes were recovered and cells on the upper side (non-migratory) were wiped off the surface. Cells on the lower side of the membrane were fixed in methanol, rinsed in water and mounted on glass slides with Vectashield medium containing DAPI (Vector Laboratories). Migrated cells on each membrane were counted by fluorescence microscopy in 5 different fields. For cell invasion assays, transwell membranes were coated with Matrigel and processed as described above.

The test system of data set [6] is Raptor. Description: Western blotting, Raptor phosphorylation. Format: cell-based, human. As to conditions: PC3; Gamitrinib 5 μM, metformin 5 mM 6 h, 17-AAG 5 μM. As to the method:
as §1

Data set [7] concerns PC3 cells. Description: Cell proliferation by direct cell counting. Format: cell-based, human. As to conditions: vs vehicle, Gamitrinib 5 μM, CCCP 12.5 μM, 2-DG 25 mM. As to the method: (§2) Tumor cells were plated onto 96-well plates at 3.7×10^3/well and treated with vehicle or Gamitrinib (5 μM). After 24 h, cell viability was assessed with a 3 (4,5-dimethyl-thyazoyl-2-yl)2,5 diphenyltetrazolium bromide (MTT) colorimetric assay (24), or, alternatively, by Trypan blue exclusion and light microscopy. Data were background-subtracted relative to vehicle-treated cultures. In some experiments, tumor cell proliferation was assessed by direct cell counting and light microscopy.

The test system of data set [8] is PC3 cells. Description: Lamella dynamics in live cells (SACED stroboscopic analysis). Format: cell-based, human. As to conditions: Gamitrinib 5 μM. As to the method:
Tumor cells growing at low confluency (3-5×10^4/well) on high optical quality 96 well μ-plates (Ibidi) were imaged with a 40× objective on a Nikon TE300 inverted time-lapse microscope equipped with a video system containing a Evolution QEi camera and a time-lapse video cassette recorder. All experiments were carried out in atmosphere-equilibrated environment at 37° C. and 5% CO2. Phase contrast images were captured at 0.5 sec intervals for 5 min (600 images=300 sec) and merged into sequence files using ImagePro Plus 7. Real time dynamics of a particular cellular region were quantified by Stroboscopic Analysis of Cell Dynamics (SACED) (55), with generation of digital steps from the first 120 sec (240 frames) of the sequence files imported into Image J software. A particular region of 16.2 μm×0.162 μm (“SACED line”) was selected in cells under analysis, duplicated and montaged in sequence to display the region over time in a stroboscopic image. […] Structures such as protruding lamellipodia and ruffles were manually labeled and the frequency of ruffles per min was calculated. Mean values were calculated from at least 15 cells from 4 separate wells. All experiments were repeated at least twice with different tumor cell types.

Data set [9] concerns Src. Description: Western blotting, Src phosphorylation. Format: cell-based, human. To be noted: Gamitrinib 5 μM. As to the method:
as §1

The subject of data set [10] is FIP200. The data set can be described thus: FIP200 phosphoisotypes, phosphate-affinity SDS gel mobility shift. As to conditions: PC3; Gamitrinib 5 μM. Format: cell-based, human. As to the method:
Analysis of phosphoisotypes was carried out by standard phosphate-affinity SDS gel electrophoresis, using a mobility shift protocol (56). Briefly, proteins were separated by electrophoresis on 3% polyacrylamide/0.5% SeaKem Gold Agarose (Lonza) gels containing the dinuclear metal complex Mn2+-Phos-tag (Acrylamide-pendant Phos-tag, Wako Chemicals). After removal of Mn2+ by washing the gels in blotting buffer containing 1 mM EDTA, proteins were transferred to PVDF membranes and detected by Western blotting using antibodies to FIP200 or pan-phosphorylated Ser residues.

Data set [11] relates to tumor cells. Description: F-actin staining (rhodamine-phalloidin), confocal microscopy. Type of data set: cell-based, human. As to conditions: Gamitrinib 5 μM; fluorescence microscopy. As to the method:
Tumor cells growing at low confluency (1-2×10^4/well) on optical grade glass coverslips were treated with vehicle or Gamitrinib (5 μM), fixed in 4% formaldehyde for 15 min at 37° C., washed in PBS, pH 7.4, and permeabilized with 0.1% Triton X-100 for 5 min at 22° C. Slides were washed in PBS, pH 7.4, blocked in 1% BSA/PBS for 30 min, incubated with 1:2000 dilution of phalloidin-rhodamine (Molecular Probes) for 30 min, washed in PBS, pH 7.4, and mounted in Fluoromount G medium (Southern Biotech). Slides were analyzed on a Leica TCS SP2 confocal laser microscope with a 100× oil objective.

Data set [12] relates to PC3 cells. Description: Cell death by Trypan blue exclusion. Type of data set: cell-based. To be noted: vs vehicle, Gamitrinib 5 μM, CCCP 12.5 μM, 2-DG 25 mM. As to the method: as §2

Entries after “also recorded” stand apart in the source; their conditions may differ.

Regarding Gamitrinib, the “Akt or ERK phosphorylation” value in [1] is listed as “not affected”. In addition, the “tumor cell viability in 100% galactose” value in data set [2] (0% Glc-100% Gal) was “nearly complete tumor cell death”. Also, the “tumor cell viability in glucose or 50% galactose” value in data set [2] (100% glucose or 50% Glc-50% Gal) is given as “did not significantly reduce tumor cell viability”. The “FAK phosphorylation on Tyr397 and Tyr925” value in data set [3] is listed as “loss of phosphorylation”. Also, the bone metastatic disease result in data set [4] was “inhibit bone metastatic disease”. Further, the tumor cell invasion entry in [5] is listed as “suppressed”. For the same substance, the “Raptor phosphorylation on Ser792” value in data set [6] is recorded as “induced strong phosphorylation”. In addition, the tumor cell proliferation entry in [7] is “did not reduce tumor cell proliferation; also recorded: did not affect cell proliferation”. Also, the “ruffling frequency and retraction speed” value in data set [8] (PC3) is reported as “profound inhibition”. In addition, in [8] (single cell time-lapse videomicroscopy), the cytoskeletal lamella dynamics entry was “nearly complete loss”. In addition, the “Src phosphorylation on Tyr416” value in data set [9] is on record as “inhibited the phosphorylation”. The “FIP200 gel mobility (phosphorylation)” value in [10] is recorded as “gel mobility retardation, suggestive of increased phosphorylation”. Also, the actin cytoskeletal assembly result in data set [11] is “suppressed actin cytoskeletal assembly”. In [12], the “cell death by Trypan blue exclusion” value is given as “did not affect”.

Source of the values: patent US20140271667A1, “Methods and Compositions for Neoadjuvant Therapy” (The Wistar Institute of Anatomy and Biology, priority 2013, published 2014).
